# Measured values taken from patent EP0994713B1, “USE OF A 7alpha-METHYL-17alpha-ETHYNYL-ESTRANE DERIVATIVE FOR THE TREATMENT OF ATHEROSCLEROSIS” (Akzo Nobel N.V., priority 1997, dated 1998).
# System: female ovariectomized rabbits
# Assay: Vessel wall cholesterol measurement in the aortic arch
# Type: in vivo, New Zealand White rabbits
# Conditions: for Cholesterol level in aortic arch: cholesterol diet, OVX, necropsy at 20 weeks
# Procedure: The model is considered relevant to the human atherosclerotic process, because the cellular events occurring during the development of the atherosclerotic lesions during the atherogenic diet are similar to those observed in different stages of atherosclerotic processes in coronary arteries.
# An experiment was performed with 7 groups of sexually mature, virgin female New Zealand White rabbits (Harlan, Zeist, The Netherlands), age 7-9 months and weighing approximately 3 kg (number of […] per group: 13-14). During the acclimatization period the rabbits were fed a diet of standard commercial rabbit chow LKK20 (Hope Farms, Woerden, The Netherlands). Three weeks prior to the start of the experiment the animals were anaesthetized and underwent bilateral ovariectomy (OVX) or were sham operated. After three weeks, at the start of the experiment, the rabbits were randomized over the treatment groups.
# The animals were randomly allocated into 7 experimental groups using a randomized block design. […] One group was fed the standard rabbit chow (LKK20). Food intake was restricted to 80 grams daily.
# Groups 1, 2 and 3 were on a daily placebo treatment. Groups 4-5 were treated with 7α-methyl-17α-ethynyl-17β-hydroxy-estra-5(10)-en-3-one (OD-14; tibolone; 6 or 2 mg daily); group 6 with 17β-estradiol (4 mg daily). Group 7 was on treatment with 17β-estradiol decanoate (150 µg in 1 ml arachis oil injected subcutaneously once a week).
# During the experiment blood samples were drawn out of the central ear artery after sedation with Hypnorm (0.1 ml i.m.) (Janssen Pharmaceutics, Beerse, Belgium) before the daily treatment, at week 4,8,12,16 and 20, to monitor the plasma cholesterol levels and to measure, at week 17, plasma estradiol levels and plasma tibolone levels. Twenty weeks after the start of the experiment animals were anaesthetized by an i.m. injection of Hypnorm (0.5 ml/kg). After blood sampling the rabbits were killed by exsanguination and the aortic arch, uterus and carotid artery removed for further analyses.
# Three weeks prior to the start of the experiment the animals were ovariectomized. At the start of the experiment the carotid artery was de-endothelialised using the air-drying technique. The normal rabbit chow was replaced by the atherogenic diet except for the control group which received during the experiment the normal rabbit chow.
# Group 5 was on treatment with 17β-estradiol decanoate (300 µg in 1 ml arachis oil injected subcutaneously once a week).
# The amount of protein in the tissue was determined by the method of Lowry.
structure (smiles),measurement,setting,value
"C#C[C@]1(O)CC[C@H]2[C@@H]3[C@H](C)CC4=C(CCC(=O)C4)[C@H]3CC[C@@]21C [Org OD14, 7α-methyl-17α-ethynyl-17β-hydroxy-estra-5(10)-en-3-one]",Cholesterol level in aortic arch,"Example 2, Group 4: 6 mg orally daily",52 ± 9 nmol/mg protein
same,Cholesterol level in aortic arch,"Example 2, Group 5: 2 mg orally daily",61 ± 11 nmol/mg protein
same,cholesterol accumulation in the aortic arch (in words),"Example 2: Org OD14 2 and 6 mg, E2 4 mg orally daily",completely prevented cholesterol accumulation
same,Cholesterol level in aortic arch,Example 3: 0.15 mg orally once daily,297 ± 67 nmol/mg protein
same,Cholesterol level in aortic arch,Example 3: 0.6 mg orally once daily,97 ± 23 nmol/mg protein
